Measured values: US20100184807A1, “Methods to inhibit tumor cell growth by using proton pump inhibitors” (Bio-Quant, Inc., priority 2008, published 2010)

Columns and labels:
UACC257 (melanoma) = assay: MTT tumor cell growth assay; type: cell-based; details: UACC257 cells, lansoprazole 1-100 μM, 48 hours
Experimental: In one study, adherent cells were plated approximately 16-24 hours before the day of the experiment in 180 μl growth media. On the day of the experiment, the plated adherent cells were analyzed and counted and suspension cells were plated in 180 μl growth media. 10× lansoprazole compounds and vehicle was prepared. The 10× lansoprazole compounds were prepared by diluting lansoprazole to final concentrations of 100 μM, 30 μM, 10 μM, 3 μM, and 1 μM. A vehicle was prepared by preparing a solution of PBS, equivalent to the volume used for 10 μM lansoprazole wherein the 1× solution constitutes ˜0.06% PBS. 10 μl of the various 10× lansoprazole solutions and the vehicle were added to the cells. The cells were incubated at 37° C., 5% CO2 for 48 hours. The media was then aspirated. The cell suspension was then spun at 1500 RPM for 10 minutes. The media was slowly removed. 200 μl of MTT solution was added to each well with a concentration of 0.863 mg/ml MTT in the growth media. The cells were incubated at 37° C., 5% CO2 for 4 hours and the medium is then aspirated. The plate containing the cell suspension was then spun at 1500 RPM for 10 minutes. The media was slowly removed using a multichannel pipettor. 100 μl of DMSO was then added to each well. The cells were incubated at 37° C., 5% CO2 for 5 minutes and the absorbance was obtained at 560 nm using a Dynex Opsys MR plate reader. The cells used for this procedure were the following cell lines: IGROV1 (ovarian cancer); OVCAR 8 (ovarian cancer); ES-2 (ovarian cancer); CAOV3 (ovarian cancer); OVCAR5 (ovarian cancer); SUDHL4 (lymphoma); RPMI8226 (myeloma); RPMI6666 (Hodgkin's lymphoma); NC37 (lymphoma); GDM-1 (leukemia); MC/CAR (prostate cancer); DU-145 (prostate cancer), J45-01 (leukemia), MOLT3 (leukemia), HUT78, J-gamma-1 (leukemia), MCF7 […], COL0205 (colon cancer), HL60 CLONE 15 (leukemia), T47D (breast cancer), P116 (intestinal cancer), KU812 (leukemia), SW620 (colon cancer), MK92-M1 (lymphoma), MV-4-11 (leukemia), HS578T (breast cancer), HT29 (colon cancer), HCT 116 (colon cancer), CAKI-1 (kidney cancer), A549 (lung cancer), H460 (lung cancer), A3 (colon cancer), MDA-MB231 […], MALME 3M (melanoma), RXF393 (kidney cancer), RS4.11 (leukemia), PC3 (prostate cancer), OVCAR3 (ovarian cancer), MDA-MB435 (melanoma), HUT102 (lymphoma), HL60 (leukemia), CCRF-CEM (leukemia), HUT78 (lymphoma), 786-O (kidney cancer), ACHN (kidney cancer), A498 (kidney cancer), H226 (lung cancer), H522 (lung cancer), HOP92 (lung cancer), SNB 19 (brain cancer), OVCAR4 (ovarian cancer), H9 (lymphoma), UO-31 (kidney cancer), HH (lymphoma), DAUDI (leukemia), LOXIMVI (melanoma), NAMALWA (lymphoma), EKVX (lung cancer), DOHH2 (lymphoma), SNB75 (brain cancer), SKMEL28 (melanoma), SKMEL5 (melanoma), SKMEL2 (melanoma), M14 (melanoma), UACC 257 (melanoma), H332M (lung cancer), KM12 (colon cancer), HCC2998 (colon cancer), G401 (kidney cancer), RS1184 (lymphoma), MC116 (leukemia), MOLT4 (leukemia), JM1 (liver cancer), HOP-62 (lung cancer), HCT-15 (colon cancer), SF-539 (brain cancer), SF295 (brain cancer), ST486 (lymphoma), U251 (brain cancer), and UACC-62 (melanoma).

SF-539 (brain cancer) = assay: MTT tumor cell growth assay; type: cell-based; details: SF-539 cells, lansoprazole 1-100 μM, 48 hours
Experimental: (§1) In one study, adherent cells were plated approximately 16-24 hours before the day of the experiment in 180 μl growth media. On the day of the experiment, the plated adherent cells were analyzed and counted and suspension cells were plated in 180 μl growth media. 10× lansoprazole compounds and vehicle was prepared. The 10× lansoprazole compounds were prepared by diluting lansoprazole to final concentrations of 100 μM, 30 μM, 10 μM, 3 μM, and 1 μM. A vehicle was prepared by preparing a solution of PBS, equivalent to the volume used for 10 μM lansoprazole wherein the 1× solution constitutes ˜0.06% PBS. 10 μl of the various 10× lansoprazole solutions and the vehicle were added to the cells. The cells were incubated at 37° C., 5% CO2 for 48 hours. The media was then aspirated. The cell suspension was then spun at 1500 RPM for 10 minutes. The media was slowly removed. 200 μl of MTT solution was added to each well with a concentration of 0.863 mg/ml MTT in the growth media. The cells were incubated at 37° C., 5% CO2 for 4 hours and the medium is then aspirated. The plate containing the cell suspension was then spun at 1500 RPM for 10 minutes. The media was slowly removed using a multichannel pipettor. 100 μl of DMSO was then added to each well. The cells were incubated at 37° C., 5% CO2 for 5 minutes and the absorbance was obtained at 560 nm using a Dynex Opsys MR plate reader.

SF295 (brain cancer) = assay: MTT tumor cell growth assay; type: cell-based; details: SF295 cells, lansoprazole 1-100 μM, 48 hours
Experimental: as §1

SNB19 (brain cancer) = assay: MTT tumor cell growth assay; type: cell-based; details: SNB19 cells, lansoprazole 1-100 μM, 48 hours
Experimental: as §1

U251 (brain cancer) = assay: MTT tumor cell growth assay; type: cell-based; details: U251 cells, lansoprazole 1-100 μM, 48 hours
Experimental: as §1

[1] = system: JR, HepG2, SR Liquid Leukemia, RS1184 B Lymphoma, and G401 rhabdoid tumor cell lines; assay: Xenograft nude mouse model, all tumor lines; type: in vivo; details: subcutaneous xenografts
Experimental: JR (rhabdomyosarcoma), HepG2 (liver carcinoma), SR Liquid Leukemia (leukemia), RSI 184 B Lymphoma (lymphoma), and G401 rhabdoid (kidney) cancer cells for use in a xenograft mouse model were collected from JR, HepG2, SR Liquid Leukemia, RS1184 B Lymphoma, and G401 rhabdoid tumor cell lines and injected at 5×10^6 cells per nude mouse in a volume of 100 μl subcutaneously. The animals were examined three times weekly to determine the progression of the tumors and determine body weight. Dosing started when tumors reached the ˜75-150 mm^3 size. Animals were randomized and distributed in groups in such a way that mean tumor weights in all groups were within 15% of the mean tumor weight in Group 1 (Control—vehicle group). Upon reaching the ˜75-150 mm^3 target size an effective amount of lansoprazole was administered to the mice in a suspension of PEG300 at a concentration of 100 mg/kg.

Cc1c(OCC(F)(F)F)ccnc1C[S+]([O-])c1nc2ccccc2[nH]1 (stereo not shown) [lansoprazole] was tested, and the “tumor cell growth reduction” value (UACC257 (melanoma)) was “significant tumor cell growth reduction”, the “tumor cell growth reduction” value (SF-539 (brain cancer)) was “significant tumor cell growth reduction” and the “tumor cell growth reduction” value (SF295 (brain cancer)) was “significant tumor cell growth reduction”. For the same compound, the “tumor cell growth reduction” value (SNB19 (brain cancer)) was “significant tumor cell growth reduction”, the “tumor cell growth reduction” value (U251 (brain cancer)) was “significant tumor cell growth reduction” and the “life span of the population” value ([1]; nude mice, 100 mg/kg in PEG300) was “extended life span”. The “tumor growth in mice” value ([1]; 100 mg/kg in PEG300, FIGS. 4A-4C and 5A-5C) was “effectively reduced tumor growth”.
